Data published in paper PMC9705834, “Mitochondrial Targeting Domain Homologs Induce Necrotic Cell Death Via Mitochondrial and Endoplasmic Reticulum Disruption” (Journal of Microbiology and Biotechnology, 2021).

Key:
[1] = cited from earlier work
Text: Within few minutes after the treatment with the MTD peptide, intracellular calcium concentration increases, and extracellular calcium penetrates through the mitochondrial permeability transition (mPT) pore. With the formation of blebs, the calcium concentration decreases and mitochondrial reactive oxidative species (ROS) begin to increase. MTDs also induce mitochondrial swelling, fragmentation, and endopla ... || Bnip1 MTD-like motif (B1MLM), derived from another BH3-only protein, Bnip1, also induces cell death in the same manner. Bnip1 interacts with […] Bcl-2 family proteins and the adenoviral antiapoptotic protein, E1B 19 kDa. The BH3 domain of Bnip1 is closely involved in apoptosis and mitochondrial fission carried out by Drp1 [14]. B1MLM has a similar arrangement of leucine residues as that of MTD. […] Similar to MTD, B1MLM induces a sharp rise in ca ... || MTD and B1MLM peptides induce necrotic cell death when associated with R8. R8 is a well-known cell penetrating motif. […] To evaluate the cytotoxicity of MTD homologs, we synthesized these peptides and fused R8 at the N-terminus.

HeLa cells = experiment: MTS assay of cell viability after peptide treatment; format: cell-based; settings: HeLa cells at 90% confluency, peptide in phenol red-free DMEM for 1 h, absorbance 450 nm
Description: HeLa cells were purchased from the Korean Cell Line Bank (Korea) and cultured in Dulbecco’s modified Eagle’s medium (DMEM) containing 10% fetal bovine serum and 1× penicillin-streptomycin (100 IU/ml and 100 μg/ml, Gibco-Thermo Fisher, USA) at 37°C in a humidified 5% CO2 atmosphere.
HeLa cells were cultured in 96-well plates to 90% confluency and treated with peptides mixed in phenol red-free DMEM for 1 h. After incubation, MTS solution (20 μl, Promega, USA) was added and the absorbance of each well was measured at 450 nm.
Fig. 1 Mitochondrial targeting domain (MTD) homologs induce necrotic cell death as in MTD. A. (Left panel) There are several mitochondrial targeting domain (MTD) homologs in human genes. They were searched by protein basic local alignment search tool (BLAST) on National Center for Biotechnology Information (NCBI) and sorted according to percent identity with MTD. Each amino acid was colored according to the ClustalX color scheme (hydrophobic, blue; positive charge, red; negative charge, magenta; polar, green; glycine, orange; proline, yellow; aromatic, cyan; cysteine, pink). (Right panel) The cytotoxicity of mitochondrial targeting domain (MTD) homologs is determined by its amino acid sequence. MTD homologs were grouped according to their cytotoxicity, then sorted according to percent identity with MTD. Each amino acid was colored according to the ClustalX color scheme (hydrophobic, blue; positive charge, red; negative charge, magenta; polar, green; glycine, orange; proline, yellow; aromatic, cyan; cysteine, pink). B. Cell viabilities were determined by MTS assay 1 h after treating HeLa cells with MTD homologs fused with octa-arginine (R8). HeLa cells treated with R8:M-LIPRIN, R8:MST3GAL3, R8:M-TRRAD, and R8:M-SDAD1(left panel). HeLa cells treated with eM-GAL3, R8:MGAL3, and R8:M-ST13 (right panel). C, HeLa cells treated with R8:M-SDAD1 (5 μM), R8:M-TRRAD (20 μM), and R8:M-ST3GAL3 (40 μM), then observed for 10 min using differential interference contrast microscopy. D, HeLa cells were treated with R8:M-SDAD1 (10 μM), R8:M-TRRAD (20 μM), and R8:M-ST3GAL3 (40 μM), with and without DIDS (200 μM); after 1 h, cell viability was determined by MTS assay. […]

[2] = previous study; cited from earlier work

KLLNLISKLF [MTD, mitochondrial targeting domain of Noxa, as a peptide without R8]
cell killing activity of MTD peptide without R8 ([1]; previous study): did not show any cell killing activity

KLNFRQKLLNLISKLFCSGT [eMTD, extended MTD: MTD with its flanking region]
necrotic cell death ([1]; MTD with its flanking region): strongly induces necrotic cell death

LLQYNHRVKKLNEISKLGISGDIDLTSASYTMI [eM-GAL3, M-GAL3 with a flanking region similar to that of eMTD, without R8]
cytotoxicity / cell viability as the concentration increased (Fig. 1B) (HeLa cells): hardly altered cell viability

RRRRRRRREAKLLELTSKLRKA [R8:M-LIPRIN, MTD homolog found in LIPRIN, fused with R8 at the N-terminus]
cytotoxicity / cell viability as the concentration increased (Fig. 1B) (HeLa cells): hardly altered cell viability

RRRRRRRRKLLNLISKLF [R8:MTD]
disruption of ER and mitochondria [2]: induced the disruption of ER and mitochondria

RRRRRRRRNPKVMNLISKLSAK [R8:M-ST13, MTD homolog found in ST13, fused with R8 at the N-terminus]
cytotoxicity / cell viability as the concentration increased (Fig. 1B) (HeLa cells): hardly altered cell viability

RRRRRRRRVKKLNEISKLGISG [R8:M-GAL3, MTD homolog found in GAL3, fused with R8 at the N-terminus]
cytotoxicity / cell viability as the concentration increased (Fig. 1B) (HeLa cells): hardly altered cell viability
